Laboratory results: patent publication US6638523B1, “Method of treating ulcers” (Nagase & Company, Ltd., priority 1999, dated 2003)

Tests used:
[1] = test system: ulcers developed in the stomach; test: Ethanol-induced gastric ulcer in rats; type: in vivo, Wistar male rats; conditions: for ED50: Rattus norvegicus, oral administration 30 min before 1 ml ethanol (99.5%), total ulcer length after 1 h, read-out: ED50 (anti-ulcer action); for anti-ulcer action: oral, carnosic acid 1, 5, 25 mg/kg, carnosol 2.5, 10, 25 mg/kg, ethanol ulcer, FIG. 1 and 2
Method: To Wistar male rats (5 rats per group) of 180-200 g body weight fasted for 24 hours before the start of a test, carnosic acid obtained in Example 1 was orally administered in dose levels of 1, 5 and 25 mg per kg body weight, after suspending it in water. Similarly, carnosol obtained in Example 1 was orally administered in dose levels of 2.5, 10 and 25 mg per kg body weight, after suspending it in water. After 30 minutes of the administration, 1 ml of ethanol (99.5%) was orally administered to each rat. After one hour of the ethanol administration, laparotomy was carried out and the lengths of all ulcers developed in the stomach were measured and added up. Similar measurements were carried out on the rats of the control group which received ethanol without receiving the above compounds and the result obtained was compared with the above results.

[2] = test system: ulcers developed in the stomach; conditions: well known anti-ulcer compound, comparison value; cited from earlier work

Compound | ED50 [1] [mg/kg] | anti-ulcer action [1] | ED50 (anti-ulcer action), comparison compound [2] [mg/kg]
CC(C)c1cc2c(c(O)c1O)[C@@]1(C(=O)O)CCCC(C)(C)[C@@H]1CC2 [carnosic acid] | 3.1 | potent anti-ulcer action | 
CC(C)c1cc2c(c(O)c1O)[C@@]13CCCC(C)(C)[C@@H]1C[C@@H]2OC3=O [carnosol] | 9.6 | potent anti-ulcer action | 
NC(N)=Nc1nc(CSCCN/C=N/S(=O)(=O)c2ccc(Br)cc2)cs1 [ebrotidine] |  |  | 26.54
